Assay results: patent US8546338B2, “Self-assembling hydrogels based on dicephalic peptide amphiphiles” (Johnson & Johnson Consumer Companies, Inc., priority 2010, dated 2013)

Key:
[1] = Oscillating rheology, strain sweep; format: physicochemical; conditions: 2 wt % gels in DMEM
Experimental: (§1) Oscillating rheology by the parallel plates method (radius=25 mm) was performed on 400 μl gels to assess the mechanical strengths of gels. Time sweeps were performed to evaluate kinetics of formation at a constant strain rate of 1% and frequency of 1 rad/s. Strain sweeps were performed ranging from 1-100% strain in increments of 2% at a constant frequency of 1 rad/s. Cross-over of G′ and G″ was used to determine the gel point and point of breakdown. Time sweeps were initiated immediately after mixing the solutions that lead to DPA hydrogel formation. In the strain sweeps, the gels were allowed to form on the plate for 30 minutes before the measurement is initiated.
Strains sweeps were performed on 2 wt % Gly-Phe-Gly-Phe-Gly-Phe-Gly-Gln-Gln-Ser (SEQ ID NO: 8), Gly-Phe-Gly-Phe-Gly-Phe-Gly-Gln-Gly-Ser (SEQ ID NO: 12) and Gly-Phe-Gly-Phe-Gly-Phe-Gly-Asn-Asn-Ser (SEQ ID NO: 11) gels in DMEM (FIG. 8). Gels were allowed to form for 30 minutes before the experiment was initiated.

[2] = Gelation experiments: inversion test for self-supporting hydrogels; format: physicochemical; conditions: for Gelation (self-supporting gel on inversion), DMEM: DPA solution in water mixed 1:1 with DMEM; for Gelation (self-supporting gel on inversion), DMEM / Concentration at which gel forms, DMEM: no calcium added; for Gelation (self-supporting gel on inversion), PBS / Gelation (self-supporting gel on inversion), Water: final concentrations 1, 2 and 4 weight percent tested; for Concentration at which gel forms, DMEM: mixed with DMEM; for Gelation (self-supporting gel on inversion), Calcium added: DMEM plus 10 μl of 100 mg/cc calcium chloride solution; for Concentration at which gel forms, Calcium added: DMEM with calcium chloride added; for Minimal concentration at which gel formed: in DMEM with calcium added
Experimental: Inversion tests were performed to determine qualitatively under which conditions the various DPAs formed self-supporting hydrogels. The various types of DPAs were tested by dissolving them in ultrapure water (>18 MΩ resistivity) at double the desired final concentration followed by mixing in a 1:1 ratio with different liquid mediums. Gelation was deemed to have occurred if the gel supported its own weight upon inverting the vial (FIG. 3A and FIG. 3B). Gelation was tested at final concentrations of 1, 2 and 4 weight percent. We tested phosphate buffered saline (PBS), and Dulbecco's modified eagle media (DMEM) as liquid medium. Typical scale is 100 μl each of DPA solution in water and mixing medium but other scales have been tested. Finally, if no spontaneous gelation occurs, 10 μl of 100 mg/cc calcium chloride solution was added to induce gelation.

[3] = Oscillating rheology, time sweep (kinetics of formation); format: physicochemical; conditions: for Gel point after mixing: 2 wt % gels in DMEM
Experimental: as §1
The gelation process was initiated on the plate at 25° C. by the addition of 10 μl of 100 mg/ml calcium chloride solution to a solution of the DPA in DMEM.

Sprague-Dawley rats = assay: Biocompatibility study, gel injected into intra-gluteal muscle pocket; format: in vivo; conditions: rat; for Tissue response (histology): harvest at 3, 7 and 28 days
Experimental: A biocompatibility study was performed on Gly-Val-Ala-Val-Ala-Val-Ala-Glu-Gly-Glu (SEQ ID NO: 4), Gly-Phe-Gly-Phe-Gly-Phe-Gly-Glu-Gly-Glu (SEQ ID NO: 5) and Gly-Phe-Gly-Phe-Gly-Phe-Gly-Gln-Gln-Ser (SEQ ID NO: 8) DPAs. Lyophilized DPA powders were e-beam sterilized in 1.5 cc polypropylene cryovials at 15 KGy. Gels were pre-formed in 1 cc syringes by mixing a 4 wt % DPA solution in water for injection in a 1:1 ratio with DMEM followed by immediate aspiration into the syringe. In the case of the formulations with the Glu-Gly-Glu (SEQ ID NO: 27) sequence in the solubility enhancing region, 10 μl of a sterile 100 mg/cc calcium chloride solution was mixed in before aspiration into the syringe. An intra-gluteal muscle pocket was created in Sprague-Dawley rats after which 100 μl of gel was injected using a catheter fitted to the syringe. Subsequently, the pocket was closed with polyglactin 910 sutures sold under the tradename VICRYL (Ethicon, Somerville, N.J.). Tissue was harvested at 3, 7 and 28 days after implantation.

[4] = Cell viability of encapsulated hUTCs in DPA gels (Live/Dead); format: cell-based, human; conditions: human, human umbilical cord cells (hUTCs) encapsulated in DPA gel; 2% DPA, 100,000 cells, calcium chloride added, after 7 days of culture, Live/Dead; read-out: Viability of hUTC cells in the gels
Experimental: The viability and proliferation of cells in the gels was evaluated by encapsulating human umbilical cord cells (hUTCs) in the gels. hUTCs were isolated as described in U.S. Pat. No. 7,510,873. Cells were thawed from storage and cultured for four days in Hayflick media. After four days, the cells were trypsinized and counted by the Guava ViaCount methodology (Millipore, Billerica, Mass.). Cells were re-suspended in Hayflick media at a density of 1,000,000 cells/ml. Encapsulation of the cells in the gels was achieved by adding 100 μl cell suspension to 100 μl of a 4 wt % DPA solution in ultrapure in a 24 well plate, resulting in a final DPA concentration of 2%. The gels were incubated for 1 h at 37° C., 5% CO2 after which 1000 μl media was added on top of the gel. Cells were incubated at 37° C., 5% CO2. Every 3-4 days of culture, 500 μl media was replaced.
After mixing of the cell suspension and 4% DPA solution by pipetting up and down, the protocol described above was modified by adding 10 μl 100 mg/ml calcium chloride solution upon which gelation occurred. Final concentrations are 2% in DPA and 100,000 cells. Control gels without cells were prepared by using pure media and additional cell only and cells with calcium chloride controls were prepared as standard 2D culture. After 7 days of culture, the gels were assayed with Live/Dead assay for cell viability and Invitrogen CyQuant GR assay for cell proliferation (Invitrogen, Carlsbad, Calif.). The Live/Dead was performed as described in the provided protocol but at half the […] concentration to reduce non-specific fluorescence due to dye absorption. […] The cells in the gels contained a lot of viable cells (FIG. 410). No dead cells could be observed in the gels. Therefore, the viability of these cells in the gels is very high (>95%).
In a second experiment, 100,000 hUTC cells were encapsulated in 2 wt % Gly-Phe-Gly-Phe-Gly-Phe-Gly-Gln-Gln-Ser (SEQ ID NO: 8) DPA gels. The cells were cultured for 3 weeks and cells were assessed after 1, 2 and 3 weeks with Live/Dead.

[5] = 2 wt % DPA in DMEM, calcium chloride added, 25° C.

| SMILES | Strain at which gel re-crosses the transition point (breakdown) ([1]; formed for 30 minutes) [% strain] | Gelation (self-supporting gel on inversion), DMEM [2] | Concentration at which gel forms, PBS [2] [%] | Gelation (self-supporting gel on inversion), PBS [2] | Gelation (self-supporting gel on inversion), Water ([2]; in water) | Concentration at which gel forms, DMEM [2] [%] | Gel point after mixing [3] | Gelation (self-supporting gel on inversion), Calcium added [2] | Concentration at which gel forms, Calcium added [2] [wt %] | Minimal concentration at which gel formed [2] [weight percent] | G′ after 10 minutes [3, 5] | also measured |
| --- | --- | --- | --- | --- | --- | --- | --- | --- | --- | --- | --- | --- |
| CCCCCCCCCCCCCCCC(=O)NC(C(=O)NCC(=O)N[C@@H](Cc1ccccc1)C(=O)NCC(=O)N[C@@H](Cc1ccccc1)C(=O)NCC(=O)N[C@@H](Cc1ccccc1)C(=O)NCC(=O)N[C@@H](CCC(N)=O)C(=O)NCC(=O)N[C@@H](CO)C(=O)O)C(=O)NCC(=O)N[C@@H](Cc1ccccc1)C(=O)NCC(=O)N[C@@H](Cc1ccccc1)C(=O)NCC(=O)N[C@@H](Cc1ccccc1)C(=O)NCC(=O)N[C@@H](CCC(N)=O)C(=O)NCC(=O)N[C@@H](CO)C(=O)O [Gly-Phe-Gly-Phe-Gly-Phe-Gly-Gln-Gly-Ser] | 99 | Yes, | 2 | Yes, | No | 2 | instantaneous | – | – | – | – | Strain at which gel re-crosses the transition point (breakdown) ([1]; formed for 30 minutes, listed as Gln-Gly-Ser (SEQ ID NO: 30)): ~100 % strain; Gelation characteristics, qualitative comparison ([2]; compared to the SEQ ID NO: 8 DPA): formed more rapidly and appears to be stronger |
| CCCCCCCCCCCCCCCC(=O)NC(C(=O)NCC(=O)N[C@@H](Cc1ccccc1)C(=O)NCC(=O)N[C@@H](Cc1ccccc1)C(=O)NCC(=O)N[C@@H](Cc1ccccc1)C(=O)NCC(=O)N[C@@H](CC(N)=O)C(=O)N[C@@H](CC(N)=O)C(=O)N[C@@H](CO)C(=O)O)C(=O)NCC(=O)N[C@@H](Cc1ccccc1)C(=O)NCC(=O)N[C@@H](Cc1ccccc1)C(=O)NCC(=O)N[C@@H](Cc1ccccc1)C(=O)NCC(=O)N[C@@H](CC(N)=O)C(=O)N[C@@H](CC(N)=O)C(=O)N[C@@H](CO)C(=O)O [Gly-Phe-Gly-Phe-Gly-Phe-Gly-Asn-Asn-Ser] | 42 | Yes, | 4 | Yes, | Yes, | 2 | instantaneous | – | – | – | – | Initial strength in strain sweep, comparison [1]: highest initial strength; Strain at which decline in properties starts ([1]; formed for 30 minutes): 15 % strain; Strain at which gel re-crosses the transition point (breakdown) ([1]; formed for 30 minutes, listed as Asn-Asn-Ser (SEQ ID NO: 29)): 40 % strain; Concentration at which gel forms, Water ([2]; in water): 2%; Rheological properties in kinetics of formation experiment, comparison ([3]; polar, non-charged solubility enhancing regions compared): highest rheological properties |
| CCCCCCCCCCCCCCCC(=O)NC(C(=O)NCC(=O)N[C@@H](Cc1ccccc1)C(=O)NCC(=O)N[C@@H](Cc1ccccc1)C(=O)NCC(=O)N[C@@H](Cc1ccccc1)C(=O)NCC(=O)N[C@@H](CCC(=O)O)C(=O)NCC(=O)N[C@@H](CCC(=O)O)C(=O)O)C(=O)NCC(=O)N[C@@H](Cc1ccccc1)C(=O)NCC(=O)N[C@@H](Cc1ccccc1)C(=O)NCC(=O)N[C@@H](Cc1ccccc1)C(=O)NCC(=O)N[C@@H](CCC(=O)O)C(=O)NCC(=O)N[C@@H](CCC(=O)O)C(=O)O [Gly-Phe-Gly-Phe-Gly-Phe-Gly-Glu-Gly-Glu] | – | No | – | – | No | – | – | Yes | 1 | 1 | 4,000 Pa | Gross observations (Sprague-Dawley rats; in vivo): some fluid buildup at day 3; G′ after 10 minutes ([3]; 1 wt % DPA in DMEM, calcium chloride added, 25° C.): 300 Pa; Estimated final strength (extrapolation of the curve) ([3]; 2 wt % DPA in DMEM, calcium chloride added): ~10,000 Pa; G′ (strength) after 1 hour [3, 5]: 7,200 Pa; G′ after temperature raised to 37° C. ([3]; 2 wt % DPA, after 1 hour, temperature raised from 25° C. to 37° C.): 5,000 Pa; viability at 168 h [4]: > 95% |
| CCCCCCCCCCCCCCCC(=O)NC(C(=O)NCC(=O)N[C@H](C(=O)N[C@@H](C)C(=O)N[C@H](C(=O)N[C@@H](C)C(=O)N[C@H](C(=O)N[C@@H](C)C(=O)N[C@@H](CCC(=O)O)C(=O)NCC(=O)N[C@@H](CCC(=O)O)C(=O)O)C(C)C)C(C)C)C(C)C)C(=O)NCC(=O)N[C@H](C(=O)N[C@@H](C)C(=O)N[C@H](C(=O)N[C@@H](C)C(=O)N[C@H](C(=O)N[C@@H](C)C(=O)N[C@@H](CCC(=O)O)C(=O)NCC(=O)N[C@@H](CCC(=O)O)C(=O)O)C(C)C)C(C)C)C(C)C [Gly-Val-Ala-Val-Ala-Val-Ala-Glu-Gly-Glu] | – | No | – | – | No | – | – | Yes | 2 | 2 | 140 Pa | Gross observations (Sprague-Dawley rats; 100 μl gel, intra-gluteal muscle pocket, day 3, no longer observed at other time points): some fluid buildup at day 3; Tissue response (histology) (Sprague-Dawley rats; 100 μl gel, intra-gluteal muscle pocket): some necrosis of the underlying tissue layer was observed; Tissue response (histology) (Sprague-Dawley rats; 100 μl gel, intra-gluteal muscle pocket, listed as Val-Ala-Val-Ala-Val-Ala-Glu-Gly-Glu (SEQ ID NO: 39)): necrosis of the underlying muscle tissue; viability at 168 h, 2 % [4]: > 95% |
